In patent publication US7365096B2, “Methods for selectively inhibiting Janus tyrosine kinase 3 (Jak3)” (Board of Regents, The University of Texas System, priority 2002, dated 2008):
Where “and” joins values, the source holds several entries; their conditions need not be identical. Identical values can stand only once. Like-named read-outs stand apart in the source and are kept apart here.

Columns and labels:
[1] = test system: LEW kidney allografts; test: Rat kidney allograft survival (LEW donors to ACI recipients); assay type: in vivo
Source text: Rat Kidney Transplants. Adult male ACI (RT1^a) and Lewis (LEW; RT1^1) rats (160-200 g) obtained from Harlan Sprague-Dawley (Indianapolis, Ind.) were cared for according to the guidelines of the Animal Welfare Committee. Rats were housed in light- and temperature-controlled quarters and given chow and water ad libitum. Kidneys were transplanted heterotopically from LEW donors to ACI recipients using a standard microsurgical technique of Ono and Lindsey^28. […] A control group of recipients remained untreated. […] Graft survival time was defined as animal survival of life supporting kidney transplant.
To test the in vivo effects, recipients of kidney allografts were treated with 649641P (NC1153) for 7 days beginning immediately after transplantation. […] A mean survival time (MST) and SD was calculated for each group from 5-6 experiments.
A MST and SD were calculated for each group from 5-6 experiments. The combination index (CI) values were calculated.

[2] = test system: LEW kidney allografts; test: as above; assay type: in vivo; remark: listed apart in the source
[3] = test system: LEW donor or third-party BUF heart allografts; test: Transplantation tolerance: heart allograft challenge of long-term surviving recipients; assay type: in vivo, rat; settings: recipients made tolerant with NC1153; n=3
Description: ACI rat recipients of LEW kidney allografts were treated for 14 days with NC1153 delivered by daily oral gavage. […] ACI rat recipients of LEW kidney allografts were treated for 7 days and thereafter 3×/week up to 90 days with 160 mg/kg NC1153 delivered by daily oral gavage. […] The mechanism of tolerance was examined when irradiated (400 rads) ACI recipients of LEW heart allografts were adoptively transferred with 30×10^6 purified T cells from tolerant recipients.

[4] = test system: rat T cell line (Nb2-11c); test: Proliferation of rat Nb2-11c T cells, IL-2 (Jak3) versus PRL (Jak2) stimulated; assay type: cell-based
Description: (§1) Cell culture and treatment. The rat T-cell line Nb2-11c, originally developed by Dr. Peter Gout (Vancouver, Canada), was grown in RPMI-1640 with 10% fetal calf serum (Intergen, cat. no. 1020-90), 2 mM L-glutamine, 5 mM HEPES, pH 7.3, and penicillin-streptomycin (50 IU/ml and 50 μg/ml, respectively), at 37° C./5% CO2. Freshly explanted normal human T lymphocytes purified by isocentrifugation (Ficoll®; EM Science, Gibbstown, N.J.) were phytohemagglutinin (PHA)-activated for 72 hours as previously described.^23 T lymphocytes were made quiescent by washing and incubating for 24 hours in RPMI-1640 medium containing 1% fetal calf serum before exposure to cytokines. […] The Mannich base 649641P (NC1153) was generously provided by Dr. Jonathan Dimmock College of Pharmacy, University of Saskatchewan, Saskatoon, Saskatchewan, Canada. All cells were then stimulated with 1 nM recombinant human IL-2 (Hoffman-LaRoche, Basel, Switzerland), IL4 or IL7 (PeproTech), or ovine prolactin (PRL) supplied by the National Hormone and Pituitary Program, National Institute of Diabetes, Digestive, and Kidney Disease (Bethesda, Md.), at 37° C. Cell pellets were frozen at −70° C.
(§2) Proliferation assays. Quiescent human primary T-cells, YT or rat Nb2-11c T-cells (5.0×10^4/well) were plated in flat-bottom, 96-well microtiter plates in 200 μl of quiescent media in the absence or presence of 1 nM IL-2, -4, -7 (PeproTech, Rock Hill, N.J.), or PRL. Next, cells were treated for 16 hours with the Mannich base drug and then pulsed for 4 hours with [^3H]-thymidine (0.5 μCi/200 μl) and harvested onto fiberglass filters. [^3H]-thymidine incorporation was analyzed by liquid scintillation counting as previously described,^23 or using standard techniques that are well known in the art.
The rat T cell line (Nb2-11c) was chosen because it responds to either PRL/Jak2 or IL-2/Jak3 stimulation.
FIG. 14B through FIG. 39B show the chemical formulas of various Mannich base compounds and others (shown as salts) that were screened for ability to inhibit proliferation in prolactin or IL2 stimulated T-cells. […]

[5] = test system: γc/Jak3-dependent PHA-activated human T cells; test: Proliferation of PHA-activated human T cells ([3H]-thymidine); assay type: cell-based; settings: for IC50: Homo sapiens
Description: as §1, §2

[6] = 160 mg/kg NC1153 oral gavage 7 days, thereafter 3×/week up to 90 days

CN(C)CC1CCCCCCCCCC(CN(C)C)C1=O (mixture of isomers) [649641P (NC1153)]
MST ± SD ([1]; 649641P (NC1153) 2.5 mg/kg/d i.v. × 7 days alone): 9.5 ± 1.4 days and 9.5 ± 1.5 days | MST ± SD ([1]; 649641P (NC1153) 5.0 mg/kg/d i.v. × 7 days alone): 12.2 ± 1.5 days | MST ± SD ([1]; 649641P (NC1153) 10.0 mg/kg/d i.v. × 7 days alone): 18.8 ± 1.1 days | MST ± SD ([1]; 649641P (NC1153) 20.0 mg/kg/d i.v. × 7 days alone): 24.8 ± 6.6 days and 24.8 ± 4.6 days | MST ± SD ([1]; 649641P (NC1153) 40.0 mg/kg/d p.o. × 7 days alone): 12.3 ± 1.26 days | MST ± SD ([1]; 649641P (NC1153) 80.0 mg/kg/d p.o. × 7 days alone): 18.6 ± 5.32 days | MST ± SD ([1]; 649641P (NC1153) 160.0 mg/kg/d p.o. × 7 days alone): 31.0 ± 3.9 days | MST ([1]; 649641P (NC1153) 240 mg/kg/day p.o. for 7 days): 47.8 ± 19.59 days | rat kidney allograft survival ([1]; given alone, i.v. or oral gavage, 7 days): prolonged rat kidney allograft survival in a dose-dependent fashion | survival times of recipients surviving beyond 90 days [2, 6]: exceeding 200 days | treated recipients surviving beyond treatment of 90 days [2, 6]: 75% | MST ([2]; 649641P (NC1153) 240 mg/kg/day p.o. for 14 days): > 60 days | survival of LEW donor heart allografts in long-term surviving recipients [3]: > 100 days | survival of third-party BUF heart allografts in long-term surviving recipients [3]: 7.0±1.0 days | effectiveness for inhibiting Jak3- versus Jak2-dependent proliferation ([4]; 1 nM IL-2 vs 1 nM PRL, 0-100 μM, 16 hours): 3 fold | selective inhibition of IL-2/Jak3-dependent versus PRL/Jak2-dependent T-cell proliferation ([4]; IL-2 vs PRL stimulated): selectively inhibits γc/Jak3-dependent but not PRL/Jak2-dependent cell proliferation | inhibition of cell proliferation in response to IL-2, IL-4 and IL-7 ([4]; as printed: Nb2-11c cells): equally effective | IC50 ([5]; T-cell, 1 nM IL-4, read-out: IC50, IL4 driven cell growth): ~2.5 µM | IC50 ([5]; T-cell, 1 nM IL-7, read-out: IC50, IL7 driven cell growth): ~2.5 µM | IC50 ([5]; IL-2 driven T-cell growth, 16 hours drug, [3H]-thymidine, read-out: IC50, disrupting cell growth): ~2.5 µM | IL2, IL4 or IL7 driven growth normalized to untreated controls ([5]; dose dependent): inhibits IL2, IL4 or IL7 driven growth
